Results from US5593970A, “Heterocyclic anthracycline analogs” (priority 1994, dated 1997).
Where two headings read alike, the source gives them in different places.

Tests used:
Experiment in all cases: Microculture tetrazolium assay
Format in all cases: cell-based
SKOV3 = tested on: SKOV3
SKVLB = details: for VLB/OV3: IC50 ratio SKVLB/SKOV3; for IC50: SKVLB
T47D = tested on: T47D
LOX = tested on: LOX
HT29 = tested on: HT29
[1] = Homo sapiens, SK-OV-3, SKOV3, read-out: IC50
[2] = Homo sapiens, HT-29, HT29, read-out: IC50

| SMILES | IC50 (SKOV3; Homo sapiens, SK-OV-3, SKOV3) [µM] | VLB/OV3 (SKVLB) | IC50 (SKVLB) [µM] | IC50 (T47D; Homo sapiens) [µM] | IC50 (LOX) [µM] | IC50 (HT29; Homo sapiens, HT-29, HT29) [µM] | IC50 (SKOV3; [1]) [µM] | IC50 (SKVLB; read-out: IC50) [µM] | IC50 (T47D; Homo sapiens, read-out: IC50) [µM] | IC50 (LOX; read-out: IC50) [µM] | IC50 (HT29; [2]) [µM] | IC50 (SKOV3; SKOV3, read-out: IC50) [µM] | IC50 (T47D; read-out: IC50) [µM] | IC50 (HT29; HT29, read-out: IC50) [µM] |
| --- | --- | --- | --- | --- | --- | --- | --- | --- | --- | --- | --- | --- | --- | --- |
| CO[C@H]1O[C@H](C(=O)CP(=O)(OC)OC)CC2=C1C(=O)c1cc3ccccc3c(O)c1C2=O (relative stereo) [BCH-1650] | 0.802 | 1.12 | 0.895 | 2.44 | 0.755 | 0.629 |  |  |  |  |  |  |  |  |
| C=COC(=O)NCCCO[C@@H]1O[C@@H](C(C)=O)CC2=C1C(=O)c1cc3ccccc3c(O)c1C2=O (relative stereo) [BCH-2036] |  | 3.27 |  |  |  |  | 3.7 | 12.1 | 6.21 | 5.4 | 3.38 |  |  |  |
| CC(=O)OCC1(C2CC3=C(C(=O)c4cc5ccccc5c(O)c4C3=O)C(O[C@H]3C[C@H](NC(=O)C(F)(F)F)[C@H](O)[C@H](C)O3)O2)OCCCO1 (single isomer, unassigned) [BCH-747] |  | 0.98 |  |  |  |  | 21 | 20.5 | 18.1 | 18.5 | 15.3 |  |  |  |
| CCOC(=O)C1CC2=C(CO1)C(=O)c1c(c(OC(C)=O)c3ccccc3c1OC(C)=O)C2=O (centres unmarked) [BCH-655, Ethyl[6,11-diacetoxy-B,12-dioxo-3,4,5,12-tetrahydroanthraceno (2,3-c)pyran-3-yl]formate] |  |  |  |  |  |  | > 100 | > 100 | > 100 | > 100 | > 100 |  |  |  |
| CCOC(=O)C1CC2=C(CO1)C(=O)c1c(cc3ccccc3c1OC(C)=O)C2=O (centres unmarked) [BCH-656, Ethyl[11-acetoxy-5,12-dioxo-3,4,5,12-tetrahydro-anthraceno[2,3-c]pyran-3-yl]formate] |  | 1.08 |  |  |  |  | 76.7 | 82.9 | 65.6 | 68.9 | 86.6 |  |  |  |
| CCOC(=O)C1CC2=C(CO1)C(=O)c1cc3ccccc3c(OC(C)=O)c1C2=O (centres unmarked) [BCH-659, Ethyl(6-acetoxy-5,12-dioxo-3,4,5,12-tetrahydroanthraceno[2,3-c]pyran-3-yl)formate] |  | 0.56 |  |  |  |  | 4.53 | 2.54 | 3.83 | 4.82 | 2.36 |  |  |  |
| COCOCC(=O)C1CC2=C(CO1)C(=O)c1c(c(OC(C)=O)c3ccccc3c1OC(C)=O)C2=O (centres unmarked) [BCH-695, 6,11-diacetoxy-3-(2-methoxymethoxy)aceto-1,2,3,4-tetrahydro-(2-oxygen)naphthacene-5,12-dione] |  | 0.49 |  |  |  |  | 30.8 | 15 | 25.2 | 21.5 | 11.4 |  |  |  |
| COCOCC(=O)C1CC2=C(CO1)C(=O)c1cc3ccccc3c(O)c1C2=O (centres unmarked) [BCH-697, 3-(2-methoxymethoxy)aceto-6-hydroxy-1,2,3,4-tetrahydro-(2-oxygen)napthacene-5,12-dione] |  | 0.68 | 10.6 |  |  |  | 15.5 |  | 13 | 12.6 | 6.04 |  |  |  |
| C=CC1CC2=C(C(=O)c3cc4ccccc4c(OC(C)=O)c3C2=O)C(OC)O1 (centres unmarked) [BCH-716, 6-acetoxy-1-methoxy-1,2,3,4-tetrahydro-3-vinyl-(2-oxygen)naphthacene-5,12-dione] |  |  |  |  |  |  | > 100 | 85.5 | 70.3 | 41.6 | > 100 |  |  |  |
| CC(=O)[C@H]1CC2=C(C(=O)c3cc4ccccc4c(O)c3C2=O)[C@H](O[C@H]2C[C@H](NC(=O)C(F)(F)F)[C@H](O)[C@H](C)O2)O1 [BCH-724, (1S',1S,3R)-Methyl-(6-hydroxy-1-(3'-trifluoroacyldaunosamine)-5,12-dioxo-3,4,5,12-tetrahydroanthraceno[2,3-C]pyran-3-yl) ketone] |  | 0.52 |  |  |  |  | 3.15 | 1.64 | 3.89 | 1.49 | 0.727 |  |  |  |
| COCOCC(=O)C1CC2=C(C(=O)c3cc4ccccc4c(O)c3C2=O)C(O[C@H]2C[C@H](NC(=O)C(F)(F)F)[C@H](OC(=O)c3ccc([N+](=O)[O-])cc3)[C@H](C)O2)O1 (some centres unmarked) [BCH-732] |  |  |  |  |  |  | 38.5 | 100 | 100 | 48 | 38.4 |  |  |  |
| CC(=O)OCC1(C2CC3=C(C(=O)c4c(cc5ccccc5c4OC(C)=O)C3=O)C(O)O2)OCCCO1 (centres unmarked) [BCH-733] |  | 1.62 |  |  |  |  |  | 6.96 |  | 6.07 |  | 4.3 | 5.51 | 2.01 |
| CC(=O)OCC1(C2CC3=C(C(=O)c4cc5ccccc5c(OC(C)=O)c4C3=O)C(O)O2)OCCCO1 (centres unmarked) [BCH-734] |  | 1.02 |  |  |  |  |  | 8.97 |  | 9.76 |  | 8.82 | 6.41 | 5.77 |
| CC(=O)OCC1(C2CC3=C(C(=O)c4c(cc5ccccc5c4O)C3=O)C(O[C@H]3C[C@H](NC(=O)C(F)(F)F)[C@H](O)[C@H](C)O3)O2)OCCCO1 (some centres unmarked) [BCH-748] |  | 1.72 |  |  |  |  | 4.9 | 8.41 | 7.73 | 10.1 | 5.99 |  |  |  |
| CC1(C2CC3=C(CO2)C(=O)c2c(cc4ccccc4c2O)C3=O)OCCCO1 (centres unmarked) [BCH-1108] |  | 1.5 |  |  |  |  | 1.5 | 2.31 | 3.83 | 100 | 2.8 |  |  |  |
| CC1(C2CC3=C(CO2)C(=O)c2cc4ccccc4c(O)c2C3=O)OCCCO1 (centres unmarked) [BCH-1109] |  |  |  |  |  |  | 62.3 | 100 | 47.1 | 76 | 62.6 |  |  |  |
| CC(=O)Oc1c2c(c(O)c3ccccc13)C(=O)C1=C(CC(C3(C)OCCCO3)OC1)C2=O (centres unmarked) [BCH-1110] |  |  |  |  |  |  | 100 | 100 | 100 | 100 | 28.9 |  |  |  |
| CC(=O)Oc1c2c(c(O)c3ccccc13)C(=O)C1=C(COC(C3(C)OCCCO3)C1)C2=O (centres unmarked) [BCH-1111] |  |  |  |  |  |  | 100 | 56.3 | 100 | 98.5 | 100 |  |  |  |
| CC1(C2CC3=C(CO2)C(=O)c2c(cc4ccccc4c2O)C3=O)OCCO1 (centres unmarked) [BCH-1112] |  | 0.55 |  |  |  |  | 5.16 | 2.83 | 9.09 | 5.32 | 5.47 |  |  |  |
| CC1(C2Cc3c(O)c4c(c(O)c3CO2)C(=O)c2ccccc2C4=O)OCCO1 (centres unmarked) [BCH-1114] |  |  |  |  |  |  | 64.6 | 100 | 100 | 100 | 68.9 |  |  |  |
| CC1(C2Cc3c(O)c4c(c(O)c3CO2)C(=O)c2ccccc2C4=O)OCCCO1 (centres unmarked) [BCH-1115] |  | 1.24 |  |  |  |  | 9.28 | 11.5 | 12.6 | 7.02 | 6.25 |  |  |  |
| CC(=O)C1Cc2c(O)c3c(c(O)c2C(O)O1)C(=O)c1ccccc1C3=O (centres unmarked) [BCH-1116] |  | 0.82 |  |  |  |  | 26.1 | 21.3 | 11.1 | 31.3 | 7.6 |  |  |  |
| CC(=O)[C@H]1CC2=C(C(=O)c3cc4ccccc4c(O)c3C2=O)[C@H](O[C@H]2C[C@H](O)[C@H](O)[C@H](C)O2)O1 [BCH-1123, (1'S,1S,3R)-Methyl-[6-hydroxy-1-(2',3',6'-trideoxy-3',4'-dihydroxy-L-lyxohexopyranose)-5,12-dioxo-3,4,5,12-tetrahydroanthraceno(2,3-C)pyran-3-yl]ketone] |  | 0.92 |  |  |  |  | 1.41 | 1.3 | 3.84 | 1.22 | 0.436 |  |  |  |
| CC(=O)[C@@H]1CC2=C(C(=O)c3cc4ccccc4c(O)c3C2=O)[C@@H](O[C@H]2C[C@H](O)[C@H](O)[C@H](C)O2)O1 [BCH-1124, (1'S,1R,3S)-Methyl-[6-hydroxy-1-(2',3',6'-trideoxy-3',4'-dihydroxy-L-lyxohexopyranose)-5,12-dioxo-2,3,5,12-tetrahydroxyanthraceno(2,3-C)pyran-3-yl]ketone] |  | 0.44 |  |  | 1.88 |  | 4.98 | 2.17 | 6.05 |  | 1.46 |  |  |  |
